The source of these data is paper PMC6100082, “Pyridine-Ureas as Potential Anticancer Agents: Synthesis and In Vitro Biological Evaluation” (Molecules : A Journal of Synthetic Chemistry and Natural …, 2018).

SMILES strings stand for the structures. Some results are limits rather than exact numbers.

For assay [1], the system named is SK-MEL-2. As to the kind of experiment: NCI one-dose SRB assay (Melanoma). Format: cell-based, human. To be noted: for inhibition at 10 µM: Homo sapiens, SK-MEL-2, 10 μM, read-out: Percentage growth inhibition (GI%); for Growth Percent: SK-MEL-2, 1.00E-5 Molar. How it is done:
(§1) The structures of all the newly prepared pyridine-ureas 8a–n were submitted to the National Cancer Institute (NCI) Developmental Therapeutic Program. Eight compounds 8b, 8d, 8e, 8i, 8j and 8l–n were selected to be examined for their in vitro growth inhibitory activity. The anticancer assays were carried out according to the protocol of the Drug Evaluation Branch, NCI, Bethesda. The selected pyridine-ureas were tested at one dose primary anticancer assay against a panel of approximately 58 cancer lines (concentration 10^−5 M). The tested human cancer cell lines emerged from nine different cancer subtypes: leukemia, colon, melanoma, ovarian, lung, CNS, renal, breast and prostate cancers. The sulforhodamine B (SRB) protein assay was adopted to estimate the cell viability and growth. The results were reported as mean-graph of the percentage growth of the treated cells, and presented as percentage growth inhibition (GI%) caused by the test compounds (Table 2).
(§2) The anticancer assays were performed in accordance with the protocol of the Drug Evaluation Branch, NCI, Bethesda. A 48 h drug exposure protocol was used and sulforhodamine B (SRB) protein assay was applied to estimate the cell viability and growth, as reported earlier.
A general note: Sulforhodamine B stains cellular protein and so reports cell mass.

In assay [2] the test system is SK-MEL-28. Nature of the assay: NCI one-dose SRB assay (Melanoma). Format: cell-based, human. To be noted: for inhibition at 10 µM: Homo sapiens, SK-MEL-28, 10 μM, read-out: Percentage growth inhibition (GI%); for Growth Percent: SK-MEL-28, 1.00E-5 Molar. How it is done:
as §1, §2

The test system of assay [3] is UACC-257. As to the kind of experiment: NCI one-dose SRB assay (Melanoma). Format: cell-based, human. To be noted: for inhibition at 10 µM: Homo sapiens, UACC-257, 10 μM, read-out: Percentage growth inhibition (GI%); for Growth Percent: UACC-257, 1.00E-5 Molar. How it is done:
as §1, §2

The subject of assay [4] is UACC-62. As to the kind of experiment: NCI one-dose SRB assay (Melanoma). Format: cell-based, human. To be noted: for inhibition at 10 µM: Homo sapiens, UACC-62, 10 μM, read-out: Percentage growth inhibition (GI%); for Growth Percent: UACC-62, 1.00E-5 Molar. How it is done: as §1, §2
Assay [5] concerns M14. As to the kind of experiment: NCI one-dose SRB assay (Melanoma). Format: cell-based, human. To be noted: for inhibition at 10 µM: Homo sapiens, M14, 10 μM, read-out: Percentage growth inhibition (GI%); for Growth Percent: M14, 1.00E-5 Molar. How it is done:
as §1, §2

Assay [6] concerns MDA-MB-435. As to the kind of experiment: NCI one-dose SRB assay (Melanoma). Format: cell-based, human. To be noted: for inhibition at 10 µM: Homo sapiens, MDA-MB-435, 10 μM, read-out: Percentage growth inhibition (GI%); for Growth Percent: MDA-MB-435, 1.00E-5 Molar. As for the experimental part:
as §1, §2

The test system of assay [7] is MALME-3M. As to the kind of experiment: NCI one-dose SRB assay (Melanoma). Format: cell-based, human. To be noted: for Growth Percent: 1.00E-5 Molar; for inhibition at 10 µM: Homo sapiens, read-out: Percentage growth inhibition (GI%). As for the experimental part:
as §1, §2

Assay [8] concerns LOX IMVI. Nature of the assay: NCI one-dose SRB assay (Melanoma). Format: cell-based, human. To be noted: for Growth Percent: 1.00E-5 Molar; for inhibition at 10 µM: Homo sapiens, read-out: Percentage growth inhibition (GI%). As for the experimental part:
as §1, §2

Assay [9] concerns SK-MEL-5. As to the kind of experiment: NCI one-dose SRB assay (Melanoma). Format: cell-based, human. To be noted: for inhibition at 10 µM: Homo sapiens, SK-MEL-5, 10 μM, read-out: Percentage growth inhibition (GI%); for Growth Percent: SK-MEL-5, 1.00E-5 Molar. As for the experimental part: as §1, §2
For assay [10], the system named is non-tumorigenic human lung fibroblast WI-38 cell line. Nature of the assay: Cytotoxic activity against non-tumorigenic cells, MTT assay. Format: cell-based. To be noted: WI-38, MTT. As for the experimental part: The cytotoxic activity of compounds 8b and 8e were evaluated against non-tumorigenic human lung fibroblast WI-38 cell line utilizing the MTT colorimetric assay developed by T. Mosmann (Table 3).
MCF-7 (human breast cancer cell line) and WI-38 (human lung fibroblast cell line), were obtained from American Type Culture Collection (Manassas, VA, USA). The cells were propagated in DMEM and supplemented with 10% heat-inactivated FBS (Hyclone), 10 μg/mL of insulin (Manufacturer, Sigma, St. Louis, MO, USA), and 1% penicillin-streptomycin. MTT assay was utilized to examine the in vitro anti-proliferative activity of the newly prepared ureas following the reported procedures. […] The data presented are the mean of at least three separate experiments.

The target of assay [11] is VEGFR-2 (Homo sapiens, UniProt P35968). As to the kind of experiment: VEGFR-2 inhibitory assay (Alpha Screen, anti-phosphotyrosine antibody).
Sequence of VEGFR-2 (P35968 20-1356, species assumed): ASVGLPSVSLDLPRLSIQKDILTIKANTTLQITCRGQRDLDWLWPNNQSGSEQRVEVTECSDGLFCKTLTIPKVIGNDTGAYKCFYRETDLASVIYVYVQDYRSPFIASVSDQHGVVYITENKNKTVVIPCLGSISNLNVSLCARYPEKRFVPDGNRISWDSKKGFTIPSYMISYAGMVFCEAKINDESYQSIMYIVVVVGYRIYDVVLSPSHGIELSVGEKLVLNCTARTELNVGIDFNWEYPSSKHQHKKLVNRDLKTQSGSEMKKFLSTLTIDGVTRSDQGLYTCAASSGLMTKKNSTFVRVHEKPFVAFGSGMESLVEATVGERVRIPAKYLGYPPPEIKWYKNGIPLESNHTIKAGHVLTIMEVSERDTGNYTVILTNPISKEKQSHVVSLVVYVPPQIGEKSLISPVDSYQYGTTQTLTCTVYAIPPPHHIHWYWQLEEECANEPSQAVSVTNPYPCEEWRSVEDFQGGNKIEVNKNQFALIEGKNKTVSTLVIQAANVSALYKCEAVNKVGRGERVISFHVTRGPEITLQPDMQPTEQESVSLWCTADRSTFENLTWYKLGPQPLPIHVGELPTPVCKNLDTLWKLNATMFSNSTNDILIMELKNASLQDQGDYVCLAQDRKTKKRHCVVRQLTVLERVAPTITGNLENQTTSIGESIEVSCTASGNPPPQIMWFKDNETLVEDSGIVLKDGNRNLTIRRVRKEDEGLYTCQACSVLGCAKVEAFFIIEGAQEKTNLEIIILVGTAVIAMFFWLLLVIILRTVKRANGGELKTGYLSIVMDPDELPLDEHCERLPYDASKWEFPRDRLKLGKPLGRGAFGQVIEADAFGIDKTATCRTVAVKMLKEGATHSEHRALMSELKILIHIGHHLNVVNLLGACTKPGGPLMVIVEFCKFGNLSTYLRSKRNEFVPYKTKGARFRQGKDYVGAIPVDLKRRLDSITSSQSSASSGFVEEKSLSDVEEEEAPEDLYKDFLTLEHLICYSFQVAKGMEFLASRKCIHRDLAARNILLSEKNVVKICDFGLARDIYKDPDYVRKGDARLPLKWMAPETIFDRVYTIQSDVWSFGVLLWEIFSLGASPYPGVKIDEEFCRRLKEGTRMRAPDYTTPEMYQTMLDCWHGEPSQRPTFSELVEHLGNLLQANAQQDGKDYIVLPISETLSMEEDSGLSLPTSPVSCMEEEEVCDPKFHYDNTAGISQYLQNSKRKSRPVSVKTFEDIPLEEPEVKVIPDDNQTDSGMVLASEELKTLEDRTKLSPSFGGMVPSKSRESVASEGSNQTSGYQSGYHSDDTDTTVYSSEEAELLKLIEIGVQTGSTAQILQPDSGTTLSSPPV

On to `COc1ccc(-c2ccc(NC(=O)Nc3cccc(C(F)(F)F)c3)c(C)n2)cc1` [Compound 8b, 1-(6-(4-Methoxyphenyl)-2-methylpyridin-3-yl)-3-(3-(trifluoromethyl)phenyl) Urea], for which the inhibition at 10 µM was determined as 25% in assay [1]; 31% in assay [2]; 39% in assay [3]; 37% in assay [4]; 63% in [5]; 31% in assay [6]. Further, the inhibition at 10 µM was found to be 10% in [7], 53% in assay [8] and 59% in assay [9]. The “Growth Percent” value in assay [1] came to 75.95%; in assay [2] it was 69.29%; in assay [3], 61.43%; in assay [4], 63.91%; in assay [5] it was 37.25%; in assay [6], 69.59%. Moreover, the “Growth Percent” value in assay [7] is 90.58%; in assay [8] it was 47.72%; in assay [9], 41.63%. The IC50 stood at 91.5 ± 4.53 µM in [10] and 5 ± 1.91 µM in assay [11].

As to `COc1ccc(-c2ccc(NC(=O)Nc3ccc(Cl)c(C(F)(F)F)c3)c(C)n2)cc1` [Compound 8e, 1-(4-Chloro-3-(trifluoromethyl)phenyl)-3-(6-(4-methoxyphenyl)-2-methylpyridin-3-yl)urea], the inhibition at 10 µM worked out at 38% in [1]; 29% in assay [2]; 43% in assay [3]; 35% in assay [4]; 69% in [5]; 29% in assay [6]. For the same compound, the inhibition at 10 µM turned out to be 18% in [7], 36% in assay [8] and 45% in assay [9]. For the same compound, the “Growth Percent” value in assay [1] worked out at 62.13%; in assay [2], 71.43%; in assay [3], 57.07%; in assay [4] it was 65.57%; in assay [5], 31.87%; in [6], 71.95%. Also, the “Growth Percent” value is on record as 82.56% in assay [7], 64.51% in assay [8] and 55.66% in assay [9]. Besides, the IC50 was 83.1 ± 5.21 µM in assay [10] and 3.93 ± 0.73 µM in assay [11].

Take `COc1ccc(-c2ccc(NC(=O)Nc3cccc(Cl)c3)c(C)n2)cc1OC` [Compound 8j, 1-(3-Chlorophenyl)-3-(6-(3,4-dimethoxyphenyl)-2-methylpyridin-3-yl) Urea]: the inhibition at 10 µM was 16% in assay [1]; 21% in [2]; 29% in [3]; 25% in assay [4]; 50% in assay [5]; 13% in assay [6]. Further, the inhibition at 10 µM was less than 10% in assay [7], 20% in assay [8] and 32% in [9]. Besides, the “Growth Percent” value in assay [1] was found to be 84.73%; in [2] it was 79.52%; in [3] it was 71.26%; in assay [4], 75.01%; in assay [5], 50.80%; in [6], 87.66%. Moreover, the “Growth Percent” value in [7] is 98.93%; in [8] it was 80.89%; in [9] it was 68.63%.

Turning to `COc1cccc(NC(=O)Nc2ccc(-c3ccc(OC)c(OC)c3)nc2C)c1` [Compound 8m, 1-(6-(3,4-Dimethoxyphenyl)-2-methylpyridin-3-yl)-3-(3-methoxyphenyl) Urea], the inhibition at 10 µM in assay [1] is 13%; in assay [2], less than 10%; in assay [3], less than 10%; in assay [4], less than 10%; in assay [5], 10%; in assay [6], less than 10%. Further, the inhibition at 10 µM in assay [7] is less than 10%; in assay [8], less than 10%; in assay [9], 16%. Besides, the “Growth Percent” value is given as 87.95% in assay [1]; 99.69% in assay [2]; 97.19% in [3]; 93.89% in [4]; 90.93% in assay [5]; 100.45% in [6]. The figures for the “Growth Percent” value in assay [7], in assay [8] and in [9] were 92.61%, 92.56% and 84.32%, respectively.

Turning to `COc1ccc(NC(=O)Nc2ccc(-c3ccc(OC)c(OC)c3)nc2C)cc1` [Compound 8n, 1-(6-(3,4-Dimethoxyphenyl)-2-methylpyridin-3-yl)-3-(4-methoxyphenyl) Urea], the inhibition at 10 µM stood at 21% in assay [1]; 14% in assay [2]; 45% in assay [3]; 41% in assay [4]; 28% in [5]; 35% in assay [6]. Further, the inhibition at 10 µM in assay [7] turned out to be 56%; in [8], 12%; in assay [9], 78%. In addition, the “Growth Percent” value in assay [1] came to 79.55%; in assay [2], 86.76%; in [3] it was 55.47%; in assay [4], 59.87%; in assay [5], 72.14%; in assay [6], 65.17%. For the same compound, the “Growth Percent” value is recorded as 44.12% in assay [7], 88.83% in assay [8] and 22.98% in [9].

As a reminder, the inhibition is the share of the control response that was lost under treatment. One may read the IC50 as the concentration that gives 50% inhibition. Read a high IC50 as a need for much substance.
